Results: ChEMBL document CHEMBL2417377, “Hit-to-lead optimization and kinase selectivity of imidazo[1,2-a]quinoxalin-4-amine derived JNK1 inhibitors” (Bioorg Med Chem Lett, 2013)

Assays:
Details in all cases: PC-3
[1] = target: T1, Serine/threonine-protein kinase TAO1 (Homo sapiens) (UniProt Q7L7X3); assay: Inhibition of TAO1 in human PC3 cell lysates at 10 uM using desthiobiotin-tagged ATP probe AX9989 followed by trypsinization by LC/MS analysis
T1 sequence (whole entry): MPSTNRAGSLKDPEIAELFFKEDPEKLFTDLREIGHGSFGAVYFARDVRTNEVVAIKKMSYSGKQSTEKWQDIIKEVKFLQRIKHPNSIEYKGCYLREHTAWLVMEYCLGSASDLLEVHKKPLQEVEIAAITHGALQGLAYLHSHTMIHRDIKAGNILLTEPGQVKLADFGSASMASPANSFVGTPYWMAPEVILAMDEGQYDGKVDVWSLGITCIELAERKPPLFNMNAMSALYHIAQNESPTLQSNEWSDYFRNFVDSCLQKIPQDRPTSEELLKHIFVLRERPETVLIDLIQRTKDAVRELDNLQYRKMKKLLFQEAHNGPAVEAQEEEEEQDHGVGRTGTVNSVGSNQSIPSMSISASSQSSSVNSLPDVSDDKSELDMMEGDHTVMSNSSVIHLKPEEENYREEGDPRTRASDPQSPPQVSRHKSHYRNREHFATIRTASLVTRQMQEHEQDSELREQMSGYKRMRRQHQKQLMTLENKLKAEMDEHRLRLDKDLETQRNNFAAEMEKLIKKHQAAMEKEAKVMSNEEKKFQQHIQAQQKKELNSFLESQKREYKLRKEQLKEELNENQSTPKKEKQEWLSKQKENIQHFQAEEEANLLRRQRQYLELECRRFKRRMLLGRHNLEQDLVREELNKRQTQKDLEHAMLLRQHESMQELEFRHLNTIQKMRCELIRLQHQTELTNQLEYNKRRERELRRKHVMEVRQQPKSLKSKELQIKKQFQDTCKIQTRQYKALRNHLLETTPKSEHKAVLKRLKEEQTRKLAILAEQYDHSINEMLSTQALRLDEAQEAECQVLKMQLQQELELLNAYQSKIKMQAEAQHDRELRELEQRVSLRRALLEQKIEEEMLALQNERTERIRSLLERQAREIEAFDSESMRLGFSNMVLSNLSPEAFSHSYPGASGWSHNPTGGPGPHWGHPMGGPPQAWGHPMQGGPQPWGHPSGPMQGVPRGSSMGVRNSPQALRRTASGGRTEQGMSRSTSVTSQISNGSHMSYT

[2] = target: Mitogen-activated protein kinase 11 (Homo sapiens) (UniProt Q15759); assay: Inhibition of p38beta in human PC3 cell lysates at 10 uM using desthiobiotin-tagged ATP probe AX9989 followed by trypsinization by LC/MS analysis
Mitogen-activated protein kinase 11 (Homo sapiens), sequence (Q15759 whole entry): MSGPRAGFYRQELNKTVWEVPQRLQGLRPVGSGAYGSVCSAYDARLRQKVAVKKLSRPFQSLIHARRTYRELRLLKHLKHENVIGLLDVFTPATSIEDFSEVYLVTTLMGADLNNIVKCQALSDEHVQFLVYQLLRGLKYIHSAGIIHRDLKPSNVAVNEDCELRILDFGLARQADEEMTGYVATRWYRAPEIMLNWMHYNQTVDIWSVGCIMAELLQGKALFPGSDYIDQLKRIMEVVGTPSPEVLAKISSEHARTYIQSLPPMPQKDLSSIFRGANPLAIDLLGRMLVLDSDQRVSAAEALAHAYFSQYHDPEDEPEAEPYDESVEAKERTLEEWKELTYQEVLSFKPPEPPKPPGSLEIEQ

[3] = target: Cyclin-dependent kinase 8 (Homo sapiens) (UniProt P49336); assay: Inhibition of CDK8 in human PC3 cell lysates at 10 uM using desthiobiotin-tagged ATP probe AX9989 followed by trypsinization by LC/MS analysis
Cyclin-dependent kinase 8 (Homo sapiens), sequence (P49336 whole entry): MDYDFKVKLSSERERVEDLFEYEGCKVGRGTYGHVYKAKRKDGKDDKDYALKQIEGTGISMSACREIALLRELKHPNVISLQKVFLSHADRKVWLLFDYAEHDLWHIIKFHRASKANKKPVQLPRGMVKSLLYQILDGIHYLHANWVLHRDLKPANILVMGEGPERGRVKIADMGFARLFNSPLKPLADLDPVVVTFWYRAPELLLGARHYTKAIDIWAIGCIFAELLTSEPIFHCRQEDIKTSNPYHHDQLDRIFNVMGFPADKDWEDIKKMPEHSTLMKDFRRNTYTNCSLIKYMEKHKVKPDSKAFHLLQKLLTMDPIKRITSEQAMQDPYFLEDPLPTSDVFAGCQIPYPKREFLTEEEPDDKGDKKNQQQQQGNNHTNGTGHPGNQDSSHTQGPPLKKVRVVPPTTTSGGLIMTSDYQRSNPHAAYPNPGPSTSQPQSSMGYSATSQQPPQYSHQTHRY

[4] = target: Phosphatidylinositol 4-kinase beta (Homo sapiens) (UniProt Q9UBF8); assay: Inhibition of PI4KB in human PC3 cell lysates at 10 uM using desthiobiotin-tagged ATP probe AX9989 followed by trypsinization by LC/MS analysis
Phosphatidylinositol 4-kinase beta (Homo sapiens), sequence (Q9UBF8 2-816 limits assumed): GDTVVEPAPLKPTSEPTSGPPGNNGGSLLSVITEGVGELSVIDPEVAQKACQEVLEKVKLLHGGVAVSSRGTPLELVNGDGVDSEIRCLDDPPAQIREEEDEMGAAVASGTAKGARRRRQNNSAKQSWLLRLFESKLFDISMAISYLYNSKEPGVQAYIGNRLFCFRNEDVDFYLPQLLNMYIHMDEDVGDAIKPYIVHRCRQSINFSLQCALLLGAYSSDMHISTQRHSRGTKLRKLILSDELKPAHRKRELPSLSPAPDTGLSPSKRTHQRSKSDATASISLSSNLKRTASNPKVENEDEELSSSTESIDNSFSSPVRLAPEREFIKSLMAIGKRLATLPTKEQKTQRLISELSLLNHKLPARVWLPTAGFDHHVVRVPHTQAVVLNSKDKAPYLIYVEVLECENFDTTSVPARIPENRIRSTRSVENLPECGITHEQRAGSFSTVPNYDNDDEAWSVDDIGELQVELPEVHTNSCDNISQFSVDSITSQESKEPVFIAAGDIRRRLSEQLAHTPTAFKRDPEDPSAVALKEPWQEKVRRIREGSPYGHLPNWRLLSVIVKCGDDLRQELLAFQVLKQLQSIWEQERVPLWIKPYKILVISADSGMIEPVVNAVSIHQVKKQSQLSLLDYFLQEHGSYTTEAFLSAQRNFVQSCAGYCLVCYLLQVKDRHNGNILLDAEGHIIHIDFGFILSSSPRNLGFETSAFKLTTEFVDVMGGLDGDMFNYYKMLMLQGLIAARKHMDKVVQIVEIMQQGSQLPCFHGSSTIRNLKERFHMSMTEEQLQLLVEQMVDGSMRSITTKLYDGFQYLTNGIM

[5] = target: Protein kinase C beta type (Homo sapiens) (UniProt P05771); assay: Inhibition of PKCbeta in human PC3 cell lysates at 10 uM using desthiobiotin-tagged ATP probe AX9989 followed by trypsinization by LC/MS analysis
Protein kinase C beta type (Homo sapiens), sequence (P05771 2-671 limits assumed): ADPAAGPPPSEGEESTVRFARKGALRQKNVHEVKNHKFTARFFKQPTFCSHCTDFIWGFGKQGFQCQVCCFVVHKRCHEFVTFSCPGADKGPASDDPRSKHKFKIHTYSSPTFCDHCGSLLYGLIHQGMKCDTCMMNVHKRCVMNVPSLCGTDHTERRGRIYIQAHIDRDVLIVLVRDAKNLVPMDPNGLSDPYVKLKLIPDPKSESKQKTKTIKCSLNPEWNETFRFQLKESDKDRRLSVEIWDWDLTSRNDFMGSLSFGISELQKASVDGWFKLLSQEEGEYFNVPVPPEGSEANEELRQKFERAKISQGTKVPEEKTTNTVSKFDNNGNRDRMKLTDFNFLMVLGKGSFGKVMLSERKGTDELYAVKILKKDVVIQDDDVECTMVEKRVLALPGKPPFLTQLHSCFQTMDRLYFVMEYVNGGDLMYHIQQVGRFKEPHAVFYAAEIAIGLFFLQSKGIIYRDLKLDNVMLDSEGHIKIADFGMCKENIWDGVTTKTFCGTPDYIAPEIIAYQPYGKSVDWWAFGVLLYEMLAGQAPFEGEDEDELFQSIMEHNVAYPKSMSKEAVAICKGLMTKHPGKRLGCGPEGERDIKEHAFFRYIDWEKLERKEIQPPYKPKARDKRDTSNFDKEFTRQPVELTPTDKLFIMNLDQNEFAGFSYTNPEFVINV

[6] = target: T2, Ephrin type-B receptor 4 (Homo sapiens) (UniProt P54760); assay: Inhibition of EphB4 in human PC3 cell lysates at 10 uM using desthiobiotin-tagged ATP probe AX9989 followed by trypsinization by LC/MS analysis
T2 sequence (whole entry): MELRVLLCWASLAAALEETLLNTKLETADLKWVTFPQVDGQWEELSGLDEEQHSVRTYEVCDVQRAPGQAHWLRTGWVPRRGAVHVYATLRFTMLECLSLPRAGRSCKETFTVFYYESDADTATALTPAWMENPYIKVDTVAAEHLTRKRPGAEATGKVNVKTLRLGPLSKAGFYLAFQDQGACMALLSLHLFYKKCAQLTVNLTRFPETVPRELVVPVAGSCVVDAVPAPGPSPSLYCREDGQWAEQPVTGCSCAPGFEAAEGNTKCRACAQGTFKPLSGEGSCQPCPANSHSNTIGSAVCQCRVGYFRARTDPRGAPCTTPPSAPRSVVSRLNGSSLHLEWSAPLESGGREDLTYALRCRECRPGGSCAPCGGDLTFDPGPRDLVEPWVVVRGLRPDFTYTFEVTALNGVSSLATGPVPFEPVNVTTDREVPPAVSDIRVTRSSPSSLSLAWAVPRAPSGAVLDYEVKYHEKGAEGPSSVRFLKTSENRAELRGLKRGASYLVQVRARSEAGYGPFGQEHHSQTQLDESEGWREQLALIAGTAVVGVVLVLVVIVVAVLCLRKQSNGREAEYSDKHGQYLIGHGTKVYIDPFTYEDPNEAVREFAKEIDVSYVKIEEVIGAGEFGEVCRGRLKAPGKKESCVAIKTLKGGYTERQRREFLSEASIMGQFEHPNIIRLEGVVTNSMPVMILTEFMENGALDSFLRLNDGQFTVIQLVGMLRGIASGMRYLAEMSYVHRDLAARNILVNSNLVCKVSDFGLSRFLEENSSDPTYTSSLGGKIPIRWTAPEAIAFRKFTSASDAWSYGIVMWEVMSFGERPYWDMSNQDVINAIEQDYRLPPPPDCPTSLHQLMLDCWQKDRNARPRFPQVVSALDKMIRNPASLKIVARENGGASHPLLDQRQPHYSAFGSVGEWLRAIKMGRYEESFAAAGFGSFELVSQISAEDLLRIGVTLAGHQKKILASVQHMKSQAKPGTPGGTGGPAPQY

[7] = target: Hepatocyte growth factor receptor (Homo sapiens) (UniProt P08581); assay: Inhibition of MET in human PC3 cell lysates at 10 uM using desthiobiotin-tagged ATP probe AX9989 followed by trypsinization by LC/MS analysis
Hepatocyte growth factor receptor (Homo sapiens), sequence (P08581 whole entry): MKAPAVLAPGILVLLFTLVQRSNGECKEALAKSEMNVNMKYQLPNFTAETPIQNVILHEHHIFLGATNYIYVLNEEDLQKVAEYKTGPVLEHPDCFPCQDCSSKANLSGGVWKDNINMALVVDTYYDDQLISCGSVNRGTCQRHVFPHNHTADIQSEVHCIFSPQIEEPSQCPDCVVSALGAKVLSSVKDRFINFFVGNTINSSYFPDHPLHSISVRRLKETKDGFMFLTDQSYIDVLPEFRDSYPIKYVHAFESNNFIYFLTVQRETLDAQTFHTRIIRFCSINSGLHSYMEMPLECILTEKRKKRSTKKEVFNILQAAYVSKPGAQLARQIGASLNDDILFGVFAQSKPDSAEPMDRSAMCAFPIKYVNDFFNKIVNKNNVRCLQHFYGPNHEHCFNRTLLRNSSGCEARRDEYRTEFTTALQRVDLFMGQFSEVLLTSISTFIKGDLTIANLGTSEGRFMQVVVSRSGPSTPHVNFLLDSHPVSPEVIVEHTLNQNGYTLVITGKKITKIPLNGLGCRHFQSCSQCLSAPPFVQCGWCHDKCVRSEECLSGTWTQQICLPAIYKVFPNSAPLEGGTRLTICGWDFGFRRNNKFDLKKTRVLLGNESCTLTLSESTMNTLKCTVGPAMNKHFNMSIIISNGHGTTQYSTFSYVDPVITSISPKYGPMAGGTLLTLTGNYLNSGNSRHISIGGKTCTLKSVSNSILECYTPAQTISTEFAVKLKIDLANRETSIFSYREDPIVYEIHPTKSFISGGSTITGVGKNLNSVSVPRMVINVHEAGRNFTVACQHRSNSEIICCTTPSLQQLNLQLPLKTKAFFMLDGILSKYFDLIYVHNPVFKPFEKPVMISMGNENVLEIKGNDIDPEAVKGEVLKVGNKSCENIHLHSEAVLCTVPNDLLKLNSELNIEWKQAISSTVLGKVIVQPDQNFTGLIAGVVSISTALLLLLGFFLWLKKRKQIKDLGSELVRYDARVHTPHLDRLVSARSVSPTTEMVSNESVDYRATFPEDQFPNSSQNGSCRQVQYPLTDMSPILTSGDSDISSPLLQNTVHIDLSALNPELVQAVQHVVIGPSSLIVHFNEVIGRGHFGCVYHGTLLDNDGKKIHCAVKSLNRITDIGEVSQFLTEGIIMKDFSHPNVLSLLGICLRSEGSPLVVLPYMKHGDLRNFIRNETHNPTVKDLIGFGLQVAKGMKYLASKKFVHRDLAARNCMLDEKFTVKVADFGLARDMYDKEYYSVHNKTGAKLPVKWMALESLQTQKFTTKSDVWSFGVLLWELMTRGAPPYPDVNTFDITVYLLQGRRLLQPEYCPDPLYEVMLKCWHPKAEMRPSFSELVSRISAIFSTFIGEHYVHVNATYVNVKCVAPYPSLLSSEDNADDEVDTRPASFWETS

[8] = target: T3, EKC/KEOPS complex subunit TP53RK (Homo sapiens) (UniProt Q96S44); assay: Inhibition of PRPK in human PC3 cell lysates at 10 uM using desthiobiotin-tagged ATP probe AX9989 followed by trypsinization by LC/MS analysis
T3 sequence (whole entry): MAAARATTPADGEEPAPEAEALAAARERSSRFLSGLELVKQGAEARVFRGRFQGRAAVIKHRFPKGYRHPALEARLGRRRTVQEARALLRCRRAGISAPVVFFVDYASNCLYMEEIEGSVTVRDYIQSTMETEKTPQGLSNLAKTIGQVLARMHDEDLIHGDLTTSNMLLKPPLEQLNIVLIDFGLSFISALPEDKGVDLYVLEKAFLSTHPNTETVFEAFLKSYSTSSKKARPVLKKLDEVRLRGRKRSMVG

[9] = target: Cyclin-dependent kinase 16 (Homo sapiens) (UniProt Q00536); assay: Inhibition of PCTAIRE1 in human PC3 cell lysates at 10 uM using desthiobiotin-tagged ATP probe AX9989 followed by trypsinization by LC/MS analysis
Cyclin-dependent kinase 16 (Homo sapiens), sequence (Q00536 whole entry): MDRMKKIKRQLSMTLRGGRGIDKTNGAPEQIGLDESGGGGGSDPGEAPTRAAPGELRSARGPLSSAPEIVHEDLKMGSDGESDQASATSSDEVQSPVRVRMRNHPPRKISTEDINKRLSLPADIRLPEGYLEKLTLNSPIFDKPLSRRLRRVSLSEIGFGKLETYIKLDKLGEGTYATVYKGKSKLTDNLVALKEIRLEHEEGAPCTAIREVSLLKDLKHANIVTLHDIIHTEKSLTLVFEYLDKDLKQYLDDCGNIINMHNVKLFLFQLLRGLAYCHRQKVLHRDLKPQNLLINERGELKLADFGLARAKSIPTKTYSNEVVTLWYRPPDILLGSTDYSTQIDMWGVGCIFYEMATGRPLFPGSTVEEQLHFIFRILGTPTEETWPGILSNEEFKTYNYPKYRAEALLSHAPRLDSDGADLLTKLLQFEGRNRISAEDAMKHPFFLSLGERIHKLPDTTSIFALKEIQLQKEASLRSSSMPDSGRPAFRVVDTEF

| Compound | inhibition [1] [%] | inhibition [2] [%] | inhibition [3] [%] | inhibition [4] [%] | inhibition [5] [%] | inhibition [6] [%] | inhibition [7] [%] | inhibition [8] [%] | inhibition [9] [%] |
| --- | --- | --- | --- | --- | --- | --- | --- | --- | --- |
| O=C(O)c1ccc2nc(N[C@H]3CC[C@H](O)CC3)c3nccn3c2c1 | < 35 | < 35 | < 35 | 99.2 | < 35 | < 35 | < 35 | 86.6 | 71.1 |
| CC[C@@H](NC(=O)c1ccc2nc(N[C@H]3CC[C@H](O)CC3)c3nccn3c2c1)c1ccccc1 | < 35 | < 35 | < 35 | < 35 | < 35 | < 35 | < 35 | < 35 | < 35 |
| CCC[C@@H](NC(=O)c1ccc2nc(N[C@H]3CC[C@H](O)CC3)c3nccn3c2c1)c1ccccc1 | < 35 | < 35 | < 35 | < 35 | < 35 | < 35 | < 35 | < 35 | < 35 |
| O=C(N[C@H](CO)c1ccccc1)c1ccc2nc(N[C@H]3CC[C@H](O)CC3)c3nccn3c2c1 | < 35 | < 35 | < 35 | 51 | < 35 | < 35 | < 35 | < 35 | < 35 |
| CC(C)(NC(=O)c1ccc2nc(N[C@H]3CC[C@H](O)CC3)c3nccn3c2c1)c1ccccc1 | < 35 | < 35 | < 35 | < 35 | < 35 | < 35 | < 35 | < 35 | < 35 |

Now from value to compound:

| inhibition [1] [%] | inhibition [2] [%] | inhibition [3] [%] | inhibition [4] [%] | inhibition [5] [%] | inhibition [6] [%] | inhibition [7] [%] | inhibition [8] [%] | inhibition [9] [%] | Compound |
| --- | --- | --- | --- | --- | --- | --- | --- | --- | --- |
| < 35 | < 35 | < 35 | < 35 | < 35 | < 35 | < 35 | < 35 | < 35 | O=C(NC1(c2ccccc2)CC1)c1ccc2nc(N[C@H]3CC[C@H](O)CC3)c3nccn3c2c1 |
| < 35 | < 35 | < 35 | 40.4 | < 35 | < 35 | < 35 | < 35 | < 35 | C[C@@H](NC(=O)c1ccc2nc(N[C@H]3CC[C@H](O)CC3)c3nccn3c2c1)c1ccccc1 |
| < 35 | < 35 | < 35 | < 35 | < 35 | < 35 | < 35 | < 35 | < 35 | O=C(NC1(c2ccc(F)cc2)CC1)c1ccc2nc(N[C@H]3CC[C@H](O)CC3)c3nccn3c2c1 |
| < 35 | < 35 | < 35 | < 35 | < 35 | < 35 | < 35 | < 35 | < 35 | O=C(NC1(Cc2ccc(F)cc2)CC1)c1ccc2nc(N[C@H]3CC[C@H](O)CC3)c3nccn3c2c1 |
| < 35 | < 35 | < 35 | 94.2 | < 35 | < 35 | < 35 | < 35 | < 35 | NC(=O)c1ccc2nc(N[C@H]3CC[C@H](O)CC3)c3nccn3c2c1 |
| < 35 | < 35 | < 35 | < 35 | < 35 | < 35 | < 35 | < 35 | < 35 | C[C@H](NC(=O)c1ccc2nc(N[C@H]3CC[C@H](O)CC3)c3nccn3c2c1)c1ccccc1 |
| < 35 | < 35 | < 35 | < 35 | < 35 | < 35 | < 35 | < 35 | < 35 | O=C(NC1(c2ccccc2)CCC1)c1ccc2nc(N[C@H]3CC[C@H](O)CC3)c3nccn3c2c1 |
